US7696248B2 (Eli Lilly and Company, priority 2005, dated 2010)

Biological target: cloned human glucagon receptor (Homo sapiens, UniProt P47871)
Experiment: Glucagon Receptor (hGlucR) Binding Assay
Description: This plasmid DNA is transfected into 293 HEK cells and selected with 200 μg/mL Hygromycin.
Crude plasma membranes are prepared using cells from suspension culture. The cells are lysed on ice in hypotonic buffer containing 25 mM Tris HCL, pH 7.5, 1 mM MgCl2, DNAse1, 20 u/mL, and Roche Complete Inhibitors-without EDTA. The cell suspension is homogenized with a glass dounce homogenizer using a Teflon pestle for 25 strokes. The homogenate is centrifuged at 4 degrees C. at 1800×g for 15 mins. The supernate is collected and the pellet is resuspended in hypotonic buffer and rehomogenized. The mixture is centrifuged at 1800×g for 15 mins. The second supernate is combined with the first supernate. The combined supernates are recentrifuged at 1800×g for 15 mins to clarify. The clarified supernate is transferred to high speed tubes and centrifuged at 25000×g for 30 minutes at 4 degrees C. The membrane pellet is resuspended in homogenization buffer and stored as frozen aliquots at −80 degree C. freezer until needed.
The specific activity is 2200 Ci/mmol.
The binding buffer contains 25 mM Hepes, pH 7.4, 2.5 mM CaCl2, 1 mM MgCl2, 0.1% fatty acid free BSA, (ICN), 0.003% tween-20, and Roche Complete Inhibitors without EDTA. […] Test compounds are dissolved in DMSO and serially diluted in DMSO. […] Plates are read with a MicroBeta after 14 hours of settling time at room temp. […]

Sequence of cloned human glucagon receptor (P47871 26-477): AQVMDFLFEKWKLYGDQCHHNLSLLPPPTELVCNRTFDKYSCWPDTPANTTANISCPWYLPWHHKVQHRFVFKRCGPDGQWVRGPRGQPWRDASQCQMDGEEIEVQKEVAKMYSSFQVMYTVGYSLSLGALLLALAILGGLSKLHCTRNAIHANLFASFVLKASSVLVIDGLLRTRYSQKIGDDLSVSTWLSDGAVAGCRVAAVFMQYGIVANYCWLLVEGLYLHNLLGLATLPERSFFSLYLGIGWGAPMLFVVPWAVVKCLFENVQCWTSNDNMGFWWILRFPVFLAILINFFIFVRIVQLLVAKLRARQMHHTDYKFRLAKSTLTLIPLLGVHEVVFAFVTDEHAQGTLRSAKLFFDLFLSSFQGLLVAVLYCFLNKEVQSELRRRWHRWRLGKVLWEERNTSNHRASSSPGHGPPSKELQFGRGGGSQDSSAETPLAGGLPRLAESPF

Ki [µM]	Structure (SMILES)
0.04	CC(C)CC(Nc1ccc(-c2ccc(C(C)(C)C)cc2)cc1)c1ccc(C(=O)NCCC(=O)O)cc1 (centres unmarked)
0.173	CCCCCC(Nc1ccc(-c2ccc(C#N)cc2)cc1)c1ccc(C(=O)NCCC(=O)O)cc1 (centres unmarked)
